Assay results as given in patent US12138277B2, “Oligosaccharides for use in the treatment of Parkinson's disease” (UNIVERSITA' DEGLI STUDI DI MILANO, priority 2018, dated 2024).

What was measured:
[1] = test system: Neuroblastoma cells of murine origin; assay: Proteomic analysis by mass spectroscopy of treated neuroblastoma cells; assay type: cell-based; conditions: after 24 h of treatment
Experimental: Neuroblastoma cells of murine origin were treated with β-Gal-(1-3)-β-GalNAc-(1-4)-[α-Neu5Ac-(2-3)]-β-Gal-(1-4)-Glc to induce neuronal differentiation (Chiricozzi et al. 2017 Journal of Neurochemistry 143:645-659). After 24 h of treatment, the cells were collected for protein analysis. […] These proteins are involved in cellular signaling of i) excitotoxicity neuroprotection; ii) inhibition of oxidative stress; iii) inhibition of microglia hyperactivation and downregulation of proinflammatory molecules.

Neuroblastoma cells = assay: Excitotoxicity protection: DCB-induced death of neuroblastoma cells; assay type: cell-based
Experimental: In Parkinson's disease, and more generally in the degenerative diseases of the central nervous system, there is a strong activation of the immune system, oxidative stress and excitotoxicity. Neuroblastoma cells were then treated with DCB (3′,4′-Dichlorobenzamyl hydrochloride) to induce an accumulation of intracellular calcium, an experimental strategy which mimics glutamate-induced excitotoxicity.

[2] = Crossing of the blood-brain barrier: radioactivity in brain areas after administration of tritiated oligosaccharide; assay type: in vivo, Wild-type mice (C57BL/6); conditions: intraperitoneal, subcutaneous or intravenous administration; 10 μg tritiated oligosaccharide; 1 hour and 22 hours after administration
Experimental: Wild-type mice (C57BL/6) of about 3 months were treated with β-[6-^3H]Gal-(1-3)-β-GalNAc-(1-4)-[α-Neu5Ac-(2-3)]-β-Gal-(1-4)-Glc.
Administration was performed intraperitoneally, subcutaneously or intravenously (Orlando P. et al 1979, Pharmacological Research Communications 11:759-773). For the intravenous route, the injection was performed in the central vein of the tail. The treatment was carried out with 10 μg of tritiated oligosaccharide (10 μCi) dissolved in 0.1 ml of saline. For each experimental group 5 animals were used. 1 hour and 22 hours after administration, the animals were sacrificed by cardiac perfusion (10 min), in order to remove the blood, especially in the central nervous system. The brain was removed and the different areas (cortex, hippocampus, substantia nigra, cerebellum, trunk) were identified and separated. Tissue samples were lyophilized, homogenized and the relative associated radioactivity was detected at the β-counter (Orlando et al 1979, Pharmacological Research Communication 11:759-773).

Row | Molecule | number of proteins whose expression is induced [1] | toxicity of the oligosaccharide to cells (Neuroblastoma cells; neuroblastoma cells) | protection of cells from DCB-induced death (Neuroblastoma cells; neuroblastoma cells treated with DCB (3′,4′-Dichlorobenzamyl hydrochloride)) | oligosaccharide reaching the central nervous system / crossing the blood-brain barrier (associated radioactivity in brain areas) [2]
1 | CC(=O)N[C@H]1[C@H](O[C@@H]2[C@H](O[C@]3(C(=O)O)C[C@H](O)[C@@H](NC(C)=O)[C@H]([C@H](O)[C@H](O)CO)O3)[C@@H](O)[C@H](O[C@H]3[C@H](O)[C@@H](O)C(O)O[C@@H]3CO)O[C@@H]2CO)O[C@H](CO)[C@H](O)[C@@H]1O[C@@H]1O[C@H](CO)[C@H](O)[C@H](O)[C@H]1O (stereo partly drawn) [β-Gal-(1-3)-β-GalNAc-(1-4)-[α-Neu5Ac-(2-3)]-β-Gal-(1-4)-Glc] | 320 | without being toxic to cells | able to protect cells from DCB-induced death | 
2 | β-[6-^3H]Gal-(1-3)-β-GalNAc-(1-4)-[α-Neu5Ac-(2-3)]-β-Gal-(1-4)-Glc |  |  |  | a fair amount of the oligosaccharide is able to reach the central nervous system, including the substantia nigra, within a few hours
